Here are results for four compounds from paper PMC9603901, “Therapeutic Potential of Antimicrobial Peptide PN5 against Multidrug-Resistant E. coli and Anti-Inflammatory Activity in a Septic Mouse Model” (Microbiology Spectrum, 2022).

In brackets after ≈: the same amount, converted by molar mass. Where no end group is shown, it is not given here.

As usually defined, the MIC is the smallest concentration in the dilution series that meets the test's criterion for growth inhibition.

Data set [1] concerns MDR E. coli ASEC 10. Details: method as in Asan hospital; key to susceptibility category: S: susceptible; R: resistant; I: intermediate. To be noted: ref Asan hospital, cited from earlier work; for MIC: ASEC 10 (ESBL), resistance information of clinical isolate; for susceptibility category: ASEC 10.
For data set [2], the system named is ASEC 18 biofilm. To be noted: crystal violet A595, 24 h, three independent experiments. As for the experimental part:
(§1) Crystal violet staining was performed to determine the degree of biofilm formation by the E. coli 25922, S. aureus 25923, and ASEC strains. E. coli 25922 and S. aureus 25923 were cultured overnight in LB and TSB media with aeration at 180 rpm, respectively. Bacterial suspensions with 0.2% glucose (5 × 10^5 CFU mL^−1) were added to a 96-well plate (30096, surface treatment; SPL Life Sciences) and incubated for 24 h at 37°C. The supernatant was removed and fixed with 100% methanol. Next, 100 μL of crystal violet was added to the plate and incubated to dye the cells for 1 h, followed by rinsing the cells three times with distilled water (dH2O). After the crystal violet was dissolved with 95% ethanol, the mass of biofilm formation at 595 nm was measured using a Versa Max microplate reader (Molecular Devices). The inhibitory effect of PN5 against biofilm formed by E. coli 25922, S. aureus 25923, and three MDR E. coli strains (ASEC 2, 16, and 18) were determined. These cells were cultured overnight in LB and TSB media. Bacterial suspensions (5 × 10^5 CFU mL^−1) containing 0.2% glucose were added to 96-well plates and PN5 was serially diluted to a final concentration of 32 μM. The minimal biofilm inhibitory concentration (MBIC) was determined in three independent experiments. The percentage of biofilm formation was measured using the equation (A595 of treated biofilm/A595 of untreated biofilm) × 100. Similarly, the MDR ASEC 1 to 19 strains were cultured overnight in LB medium and seeded into 96-well plates with medium containing 0.2% glucose at 5 × 10^5 CFU mL^−1 of the bacterial suspension. Biofilm staining was performed as described above. SYTO 9 (6 μM) fluorescence in LIVE/DEAD BacLight was used to visualize the degree of biofilm formation. […] After 24 h, the culture supernatant of the peptide and bacteria was discarded, and the pellet was fixed with 100% methanol. A fluorescence mixture of SYTO 9 and propidium iodide was then added to each well, and the fluorescence was evaluated with an EVOS FL color imaging system (Thermo Fisher Scientific) with a 4× objective ([22]).

Data set [3] deals with ASEC 2 biofilm. To be noted: for biofilm formation visualized with SYTO 9: antibiotics at 32 μM, 24 h, SYTO 9 staining (Fig. 3F); for MBIC50: crystal violet A595, 24 h, three independent experiments. As for the experimental part:
as §1

In data set [4] the test system is ASEC 16 biofilm. To be noted: crystal violet A595, 24 h, three independent experiments. The protocol:
as §1

Data set [5] concerns ASEC strains (drug-resistant E. coli, ASEC 1 to 19). Put plainly: MIC, microdilution, summary over clinical isolates. The format is cell-based. To be noted: Escherichia coli; cefotaxime and ceftazidime: 'mostly showed no activity'. The protocol: (§2) Bacterial cells were cultured at 37°C in the appropriate culture media with shaking (180 rpm). Luria-Bertani broth (LB) (244620; BD Difco) was used for E. coli ATCC 25922, ASEC strains, and B. subtilis KCTC 2217. Nutrient broth (NB) (234000; BD Difco) was used for P. aeruginosa ATCC 27853, S. Typhimurium KCTC 1926, and A. baumannii KCTC 2508. Tryptic soy broth (TSB) (211825; BD Difco) was used for S. aureus ATCC 25923. Finally, brain heart infusion (BHI) (237500; BD Difco) was used for L. monocytogenes KCTC 3710. The antimicrobial activity of each peptide was determined using microdilution assays. To this end, 2-fold serial dilution series of each peptide (from 1 to 64 μM) were added to duplicate media with 10 mM sodium phosphate buffer (pH 7.4). Fifty microliters of the peptide and antibiotic solution was added to each well of a 96-well plate (32096, surface nontreatment; SPL Life Sciences). Then, 50 μL of 2 × 10^5 CFU mL^−1 of bacteria was added to each well, and the samples were incubated for 18 to 24 h without shaking at 37°C.

For data set [6], the system named is mouse red blood cells. As to the kind of experiment: Hemolytic activity. To be noted: 200 μM; 8% mouse red blood cells, 1 h, 37°C. The format is cell-based. As for the experimental part: RAW 264.7 cells (mouse macrophage cells) were maintained in high-glucose Dulbecco’s modified Eagle medium (DMEM) (Welgene, Daegu, South Korea) supplemented with 10% fetal bovine serum (FBS) (Gibco) and 1% penicillin at 37°C in humidified 5% CO2. Cells (2 × 10^5 cells well^−1) were seeded into DMEM supplemented with 10% FBS medium in a 96-well plate. The MTT assay was performed after culturing the cells in 96-well plates at a density of 2 × 10^5 cells well^−1, followed by treatment with serially diluted PN5, magainin 2, and melittin. After 24 h, the medium was discarded, and 100 μL DMEM and 10% FBS medium containing 0.5 mg mL^−1 MTT were added to each well. After 4 h of incubation, the medium was discarded and dimethyl sulfoxide was added to each well to solubilize the formazan. The optical densities at 570 and 650 nm (OD570 and OD650, respectively) of the treated cells were compared to those of control cells. The hemolytic activity of the peptides was evaluated as the release of hemoglobin from an 8% mRBC suspension. A 100-μL aliquot of the 8% mRBC suspension was added to the wells of a 96-well plate, and 100 μL of peptide solution in phosphate-buffered saline (PBS) was added at a final peptide concentration of 200 μM. After incubation for 1 h at 37°C with shaking (50 rpm), the suspensions were centrifuged at 1,000 × g for 5 min. The absorbance of the supernatant was measured at 414 nm using a Versa Max microplate reader (Molecular Devices). As a control, no hemolysis and complete hemolysis were determined in PBS and 0.1% Triton X-100, respectively. The degree of hemolysis was calculated using the following equation as described in reference: %hemolysis=[(A414withpeptide-A414withPBS)/(A414with0.1%TritonX-100-A414 with PBS)] × 100

Data set [7] has as its system A. baumannii KCTC 2508. Format: cell-based, Acinetobacter baumannii. To be noted: microdilution, NB, 18 to 24 h, 37°C, three independent experiments. As for the experimental part: as §2
In general terms: Broth dilution looks for growth in wells or tubes with falling amounts of substance.

The subject of data set [8] is L. monocytogenes KCTC 3710. The format is cell-based, Listeria monocytogenes. To be noted: microdilution, BHI, 18 to 24 h, 37°C, three independent experiments. As for the experimental part:
as §2

On to `CO/N=C(\C(=O)N[C@@H]1C(=O)N2C(C(=O)O)=C(COC(C)=O)CS[C@H]12)c1csc(N)n1` [Cefotaxime], for which the MIC was greater than 32 µg/mL in data set [1] and greater than 32 µM in data set [5]. Also, in data set [1], the susceptibility category result is “R”. Also, the MBIC50 is listed as >128 (>58.3) μM in data set [2], >128 (>58.3) μM in data set [3] and 128 (58.3) μM in data set [4]. Besides, in data set [3], the “biofilm formation visualized with SYTO 9” value was “did not inhibit biofilm formation”.

Turning to `CC(C)(O/N=C(\C(=O)N[C@@H]1C(=O)N2C(C(=O)[O-])=C(C[n+]3ccccc3)CS[C@H]12)c1csc(N)n1)C(=O)O` [Ceftazidime], the results for the MIC in data set [1] and in data set [5] were 16 µg/mL (≈ 29.3 µM) and greater than 32 µM, respectively. Moreover, the susceptibility category result in data set [1] is “R”. Also, the MBIC50 in data set [2], in data set [3] and in data set [4] was >128 (>69.95) μM throughout. In addition, the “biofilm formation visualized with SYTO 9” value in data set [3] is on record as “did not inhibit biofilm formation”.

With `C[C@@H](O)[C@H]1C(=O)N2C(C(=O)O)=C(S[C@@H]3CN[C@H](C(=O)N(C)C)C3)[C@H](C)[C@H]12` [Meropenem], in data set [1], the MIC entry was “<= 1 μg mL-1” and the susceptibility category entry is given as “S”. The MBIC50 in data set [2] is given as <2 (<0.77) μM. Moreover, in data set [3], the “biofilm formation visualized with SYTO 9” value was “did not inhibit biofilm formation” and the MBIC50 is given as 64 (24.54) μM. Besides, in data set [4], the MBIC50 is <2 (<0.77) μM.

On to FKFLARTGKFL-NH2 [PN5], for which the MBIC50 in data set [2] is recorded as 16 (21.22) μM; in data set [3] it was 8 (10.61) μM; in data set [4] it was 16 (21.22) μM. Also, the hemolysis result in data set [6] is on record as “did not induce hemolysis”. The results for the MIC in data set [7] and in data set [8] were 4 µM and 16 µM, respectively.
